# Test results taken from US20040253224A1, “Mammalian mucinase, its recombinant production, and its use in therapy or prophylaxis against diseases in which mucus is involved or infectious diseases” (priority 2001, published 2004).
# Legend:
# [1] = system: hyphae of Candida albicans; assay: incubation of hyphae with recombinant AMCase; assay type: cell-based
# [2] = specific activity of purified enzyme on 4MU-chitotrioside; assay type: biochemical; conditions: pH 5.2
# Procedure: (§1) Chitin affinity chromatography was used to purify the enzyme. Detergent-free extracts of mouse tissues were prepared by homogenization in 10 volumes of potassium phosphate buffer pH 6.5, using an Ultra-turrax and centrifugation for 20 minutes at 15,000×g. The mouse intestine extract was adjusted to pH 5.0 by the addition of citric acid (0.2 M); NaCl was added to a final concentration of 2 M. A chitin column was prepared by mixing 10 grams swollen Sepharose G25 fine (Pharmacia, Uppsala, Sweden) with 300 mg of colloidal chitin (prepared as described by Shimahara et al. (Shimahara et al., 1988), followed by equilibration with phosphate-buffered saline (PBS) containing 2M NaCl. The extracts were applied onto the column with a flow speed of 0.4 ml/minute. After extensive washing, bound chitinase was eluted from the column with 8M urea, which was subsequently removed by dialysis. Protein concentrations were determined according to the method of Lowry et al. (Lowry et al 1951) using BSA as a standard. Fractions containing chitinase activity were subjected to SDS-PAGE and Western blotting as described (Renkema et al., 1995).
# The specific activity of the purified enzyme was 3.9 nmol 4-methylumbelliferyl-chitotrioside hydrolyzed per mg per hour at pH 5.2, which is almost identical to that of human chitotriosidase.
# (§2) […]. […] Chitinase enzyme preparations were added in 3 μg/ml.
# [3] = assay type: physicochemical; conditions: for enzyme precipitated at 0.5% (w/v) TCA: 0.5% (w/v) trichloroacetic acid
# Procedure: Panel C: Precipitation by trichloroacetic acid (TCA). Purified recombinant human chitotriosidase and mouse AMCase were incubated with the indicated percentages of TCA. The amount of remaining enzyme activity after centrifugation is shown as a percentage of initial amounts.
# (§3) The pH dependence of chitinase activity of AMCase was determined by incubating purified enzyme at a different pH (Mcllvaine buffer range 1.7-8.5) with 4-methylumbelliferyl substrates. Release of the fluorescent 4-metylumbelliferone was monitored fluorometrically (excitation […]).
# [4] = binding to chitin particles
# Procedure: as §1
# [5] = system: Bovine submaxillary gland mucin; assay: degradation of mucin, SDS-PAGE and silver staining; assay type: biochemical; conditions: 125 μg mucin, 500 ng enzyme, 0.05M NaAc pH 5.0, overnight 37° C.
# Procedure: (§4) FIG. 7. The effect of AMCase on glycoproteins was studied by evaluating the effect of mouse AMCase on mucin, a type of glycoproteins expressed on mucosal surfaces in the airways and gastrointestinal tract. Bovine submaxillary gland mucin (Sigma) 125 μg was dissolved in 40 μl 0.05M NaAc pH 5.0 in the presence or absence of 500 ng mouse AMCase. After overnight incubation at 37° C., the mucin was electrophorized on an SDS-PAGE gel 7.5%, followed by silver staining.
# as §4, with “The” for “FIG. 7. The”, “of” for “of mouse”, “glycoprotein” for “type of glycoproteins”, “(7.5% homogeneous,” for “7.5%,”, “staining). As is shown in FIG. 7, the mucin was degraded by treatment with the AMCase.” for “staining.”
# [6] = resistance against proteases; assay type: physicochemical
# [7] = system: Candida albicans strain CAi-4 spheroplasts; assay: chitin content of cell wall of regenerating spheroplasts (Calcofluor white); assay type: cell-based; conditions: 3 μg per ml enzyme, 2 hours incubation
# Procedure: as §2
# In addition, the mouse acidic chitinase and chitotriosidase were both able to digest chitin in the cell wall of regenerating spheroplasts of Candida albicans. The chitin content of the cell wall was determined with the Calcofluor white stain. When regenerating cells were incubated for 2 hours with 3 μg per ml recombinant chitotriosidase or 3 μg per ml recombinant mouse acidic chitinase, the chitin content was reduced by 27% and 33%, respectively.
# [8] = chitin degradation products by FACE; assay type: biochemical; conditions: FACE analysis
# Procedure: FIG. 2. Degradation products with colloidal chitin as substrate. The FACE technique (described in experimental procedures) was used to visualize the cleavage products of recombinant human chitotriosidase and recombinant mouse AMCase using colloidal chitin as substrate. Lane 1, no enzyme added. Lane 2, products formed after incubation with 50 kDa recombinant human chitotriosidase with chitin. Lane 3, products formed with recombinant mouse AMCase and chitin. Lane 4, human chitotriosidase incubated without substrate. Lane 5, mouse AMCase incubated without substrate. Marker lane is indicated with M (sugar polymers are indicated on the right-hand side).
# as §2
# [9] = pH dependence of chitinase activity (McIlvaine buffer, 4-methylumbelliferyl substrates); assay type: biochemical; conditions: McIlvaine buffer range 1.7-8.5
# Procedure: Panel A: pH activity profile of the different chitinases. The pH optima were determined by monitoring enzyme activity at the indicated pH in Mcllvaine buffer. Purified human recombinant chitotriosidase (closed lozenge), purified mouse AMCase (closed circle).
# as §3
# [10] = system: submaxillary gland mucins; assay: viscosity and flow rate of mucin solution in vertical glass pipette; assay type: biochemical
# Description: The mammalian mucinase, endogenously present at mucosal surfaces in mammals, provides the solution for the above-mentioned problems concerning diseases in which mucus is involved. A mucinase of the invention is capable of cleaving mucus. In one embodiment, a specific mouse (nucleotide sequence SEQ ID NO:3 (see, Table III, below) and amino acid sequence SEQ ID NO:4 (see, Table IV, below)) and human mucinase (nucleotide sequence SEQ ID NO:2 (see, Table II, above) and amino acid sequence SEQ ID NO:1 (see, Table I, above) is provided, called AMCase. It has a catalytically active 39 kDa domain which is connected via a hinge region with a C-terminal mucin-binding domain. To show its mucus-degrading property, we have incubated a mixture of submaxillary gland mucins with recombinant 50 kDa AMCase. The effect of the incubation was examined by analysis with SDS-PAGE and silver staining. […] The flow rate of the mucin solution, as measured in a vertically positioned glass pipette, was increased with almost a factor of 2.
# [11] = cited from earlier work
# [12] = stability on pre-incubation at acidic or basic pH; assay type: physicochemical; conditions: 30 minutes pre-incubation in McIlvaine buffer
# Procedure: Panel B: Effects of acidic pre-incubation. Purified recombinant human chitotriosidase and mouse AMCase were pre-incubated for 30 minutes at the indicated pH in Mcllvaine buffer prior to enzyme activity measurement at the assay pH (see experimental procedures). Activity prior to incubation at the indicated pH is defined as 100%.
# as §3
# [13] = expression of full-length cDNA in COS-1 cells, chitinolytic activity; assay type: biochemical; conditions: data not shown
# Description: These two sequences are most probably splice variants of the human acidic chitinase mRNA.
compound,measurement,setting,value
"mouse AMCase: acidic mammalian chitinase/mucinase of mouse, 50 kDa protein, amino acid sequence SEQ ID NO:4",effect on hyphae (fungistatic effect),[1],selective lysis of the growing tip
same,specific activity of the purified enzyme,[2],3.9 nmol 4-methylumbelliferyl-chit
same,specific activity of the purified enzyme,[2]; listed as mouse acidic chitinase,3.9 nmol 4-methylumbelliferyl-chitotrioside hydrolyzed per mg per hour
same,enzyme remaining unprecipitated at 2.5% (w/v) TCA,[3],26%
same,enzyme precipitated at 0.5% (w/v) TCA,[3],remains in solution
same,binding to chitin particles,[4],high affinity
same,degradation of mucin,[5],degraded substantially
same,degradation of mucin,[5]; listed as recombinant 50 kDa AMCase,remarkable reduction in size of the mucins
same,resistance against proteases,[6],quite resistant against various proteases
same,chitin content of cell wall reduced by,[7],33%
same,cleavage products released from chitin,[8],releases mainly chitobioside fragments
same,less pronounced pH optimum,[9],4.7 pH
same,pH optimum (pronounced),[9],2.3 pH
same,viscosity of the mucin solution after incubation,[10],markedly reduced
same,increase of flow rate of the mucin solution,[10]; vertically positioned glass pipette,~2 factor
CC(=O)N[C@@H](CS)C(=O)O [N-acetylcysteine],mucolytic activity in vitro,[11]; in vitro,has mucolytic activity in vitro
same,mucolytic activity in vivo,[11]; in vivo,has not been demonstrated convincingly in vivo
"chitotriosidase: human phagocyte chitinase, SEQ ID NO:10, used as comparator [reference compound]",effect of pre-incubation at low pH on activity,[12],completely inactivated
same,enzyme precipitated at 0.5% (w/v) TCA,[3],58%
same,enzyme precipitated at 2.5% (w/v) TCA,[3]; 2.5% (w/v) trichloroacetic acid,all chitotriosidase precipitates
same,chitin content of cell wall reduced by,[7],27%
same,cleavage products released from chitin,[8],releases mainly chitobioside fragments
same,pH optimum (pronounced),[9],only a broad pH optimum
"human AMCase: human acidic mammalian chitinase/mucinase, amino acid sequence SEQ ID NO:1",chitinolytic activity of expressed protein,[13],protein with chitinolytic activity
